System: T5 (DNA, single strand) TTTTT
Test: direct excitation Eu
Settings: 50 mM NaNO3; 20 mM HEPES pH 7.0; 25 µM complex; 5–50 µM nucleic acid

binding: weak
SMILES: NC(=O)CN1CCN(CC(N)=O)CCN(Cc2ccc(CN3CCN(CC(N)=O)CCN(CC(N)=O)CCN(CC(N)=O)CC3)cc2)CCN(CC(N)=O)CC1.O.O.O.O.[Eu+3].[Eu+3]

Source: publication PMC2717892 (2009)
